Data taken from ChEMBL document CHEMBL5385961, “In vitro and in vivo evaluation of novel chromeno[2,3-d]pyrimidinones as therapeutic agents for triple negative breast cancer” (RSC Med Chem, 2024).
Activity calls are given as the source filed them. No cut-off for these calls is given here.

Assays:
[1] = Toxicity in wild type C57BL/6J mouse assessed as effect on eyelid opening at 10 to 50 mg/kg, ip administered daily for 7 days and measured daily; assay type: organism-based; conditions: in vivo, 168 h, dose 10-50 mg/kg, time 7 day
Hs-578T [2] = assay: Cytotoxicity against human Hs-578T cells assessed as cell viability at 10 uM incubated for 72 hrs by SRB assay relative to control; assay type: functional; conditions: read-out: Activity
[3] = Toxicity in wild type C57BL/6J mouse assessed as effect on hydration at 10 to 50 mg/kg, ip administered daily for 7 days and measured daily; assay type: organism-based; conditions: in vivo, 168 h, dose 10-50 mg/kg, time 7 day
[4] = Toxicity in wild type C57BL/6J mouse assessed as straub tail reaction at 10 to 50 mg/kg, ip administered daily for 7 days and measured daily; assay type: organism-based; conditions: in vivo, 168 h, dose 10-50 mg/kg, time 7 day
[5] = Toxicity in wild type Caenorhabditis elegans N2 assessed as drug tolerance at 0.0001 to 50 uM; conditions: dose 0.0001-50 µM
Hs-578T [6] = assay: Cytotoxicity against human Hs-578T cells assessed as cell viability at 30 uM incubated for 72 hrs by SRB assay relative to control; assay type: functional; conditions: read-out: Activity
[7] = Toxicity in wild type C57BL/6J mouse assessed as mean water intake per day at 10 to 50 mg/kg, ip administered daily for 7 days; assay type: organism-based; conditions: in vivo, 168 h, dose 10-50 mg/kg, time 7 day
Hs-578T [8] = assay: Induction of cell cycle arrest in human Hs-578T cells assessed as reduction in G0/G1 cell population at IC50 measured after 24 hrs by RNase/PI staining based flow cytometry analysis; assay type: functional
Hs-578T [9] = assay: Induction of cell cycle arrest in human Hs-578T cells assessed as increase in G2/M phase cell population at IC50 measured after 24 hrs by RNase/PI staining based flow cytometry analysis; assay type: functional
Hs-578T [10] = assay: Induction of apoptosis in human Hs-578T cells assessed as increase in caspase-8 protein expression at IC50 measured after 48 hrs by Western blot analysis; assay type: functional, cell-based
Hs-578T [11] = assay: Cytotoxicity against human Hs-578T cells assessed as reduction in cell viability at 10 uM incubated for 72 hrs by SRB assay relative to control; assay type: functional
[12] = Toxicity in wild type C57BL/6J mouse assessed as mean food intake at 50 mg/kg, ip administered daily for 7 days; assay type: organism-based; conditions: in vivo, 168 h, time 7 day
Hs-578T [13] = assay: Induction of apoptosis in human Hs-578T cells assessed as increase in BAD protein expression at IC50 measured after 24 to 48 hrs by Western blot analysis; assay type: functional, cell-based; conditions: time 24-48 hrs
Hs-578T [14] = assay: Antitumor activity against human Hs-578T cells implanted in chick eggs assessed as regression in tumors' perimeter at 2 times IC50 administered starting from day 13 and measured 17 days post embryo development by stereomicroscopic analysis relative to control; assay type: functional; conditions: time 5 day
[15] = Toxicity in wild type C57BL/6J mouse assessed as effect on bolus fecalis count at 10 to 50 mg/kg, ip administered daily for 7 days and measured daily; assay type: organism-based; conditions: in vivo, 168 h, dose 10-50 mg/kg, time 7 day
Hs-578T [16] = assay: Cytotoxicity against human Hs-578T cells assessed as inhibition of cell growth incubated for 72 hrs by SRB assay; assay type: functional, cell-based
[17] = Toxicity in wild type C57BL/6J mouse assessed as effect on vertical activity at 10 to 50 mg/kg, ip administered daily for 7 days and measured daily; assay type: organism-based; conditions: in vivo, 168 h, dose 10-50 mg/kg, time 7 day
Hs-578T [18] = assay: Induction of apoptosis in human Hs-578T cells assessed as increase in early apoptotic cells at IC50 measured after 48 hrs by Annexin V-FITC/PI staining based flow cytometry analysis relative to control; assay type: functional
[19] = Toxicity in wild type C57BL/6J mouse assessed as effect on spontaneous activity at 10 to 50 mg/kg, ip administered daily for 7 days and measured daily; assay type: organism-based; conditions: in vivo, 168 h, dose 10-50 mg/kg, time 7 day
[20] = Toxicity in wild type C57BL/6J mouse assessed as transfer to reaction at 10 to 50 mg/kg, ip administered daily for 7 days and measured daily; assay type: organism-based; conditions: in vivo, 168 h, dose 10-50 mg/kg, time 7 day
[21] = Toxicity in wild type C57BL/6J mouse assessed as reduction in body weight at 10 to 50 mg/kg, ip administered daily for 7 days; assay type: organism-based; conditions: in vivo, 168 h, dose 10-50 mg/kg, time 7 day
Hs-578T [22] = assay: Induction of apoptosis in human Hs-578T cells assessed as increase in cleaved PARP level at IC50 measured after 48 hrs by Western blot analysis; assay type: functional, cell-based
Hs-578T [23] = assay: Induction of cell cycle arrest in human Hs-578T cells assessed as accumulation of cells at S phase at IC50 measured after 48 hrs by RNase/PI staining based flow cytometry analysis; assay type: functional
Hs-578T [24] = assay: Induction of apoptosis in human Hs-578T cells assessed as increase in caspase-8 protein expression at IC50 measured after 24 hrs by Western blot analysis; assay type: functional, cell-based
Hs-578T [25] = assay: Cytotoxicity against human Hs-578T cells assessed as reduction in cell proliferation at IC50 measured after 48 hrs by BrdU incorporation assay relative to control; assay type: functional; set-up: scale not given: the % may be the effect or the level left
Hs-578T [26] = assay: Induction of apoptosis in human Hs-578T cells assessed as reduction in viable cells at IC50 measured after 24 to 48 hrs by Annexin V-FITC/PI staining based flow cytometry analysis; assay type: functional, cell-based; conditions: time 24-48 hrs
[27] = Cytotoxicity against human MCF-10A cells assessed as inhibition of cell growth incubated for 72 hrs by SRB assay; assay type: toxicity, cell-based
[28] = Toxicity in wild type C57BL/6J mouse assessed as clasping at 10 to 50 mg/kg, ip administered daily for 7 days and measured daily; assay type: organism-based; conditions: in vivo, 168 h, dose 10-50 mg/kg, time 7 day
[29] = Toxicity in wild type C57BL/6J mouse assessed as tremor at 10 to 50 mg/kg, ip administered daily for 7 days and measured daily; assay type: organism-based; conditions: in vivo, 168 h, dose 10-50 mg/kg, time 7 day
[30] = Toxicity in wild type C57BL/6J mouse assessed as effect on body position at 10 to 50 mg/kg, ip administered daily for 7 days and measured daily; assay type: organism-based; conditions: in vivo, 168 h, dose 10-50 mg/kg, time 7 day
[31] = Toxicity in wild type C57BL/6J mouse assessed as effect on grooming at 10 to 50 mg/kg, ip administered daily for 7 days and measured daily; assay type: organism-based; conditions: in vivo, 168 h, dose 10-50 mg/kg, time 7 day
[32] = Toxicity in wild type Caenorhabditis elegans N2 assessed as effect on food consumption at 0.0001 to 50 uM measured daily for 7 days by food clearance assay; conditions: 168 h, dose 0.0001-50 µM, time 7 day
[33] = Toxicity in wild type C57BL/6J mouse assessed as piloerection at 10 to 50 mg/kg, ip administered daily for 7 days and measured daily; assay type: organism-based; conditions: in vivo, 168 h, dose 10-50 mg/kg, time 7 day
Hs-578T [34] = assay: Cytotoxicity against human Hs-578T cells assessed as reduction in cell proliferation at 0.5 times IC50 measured after 24 hrs by BrdU incorporation assay relative to control; assay type: functional; set-up: scale not given: the % may be the effect or the level left
MDA-MB-231 = assay: Cytotoxicity against human MDA-MB-231 cells assessed as cell viability at 10 uM incubated for 72 hrs by SRB assay relative to control; assay type: functional; conditions: read-out: Activity
Hs-578T [35] = assay: Cytotoxicity against human Hs-578T cells assessed as reduction in cell proliferation at 0.5 times IC50 measured after 48 hrs by BrdU incorporation assay relative to control; assay type: functional; set-up: scale not given: the % may be the effect or the level left
[36] = Toxicity in wild type C57BL/6J mouse assessed as effect on respiratory rate at 10 to 50 mg/kg, ip administered daily for 7 days and measured daily; assay type: organism-based; conditions: in vivo, 168 h, dose 10-50 mg/kg, time 7 day
Hs-578T [37] = assay: Induction of cell cycle arrest in human Hs-578T cells assessed as accumulation of cells at S phase at IC50 measured after 24 hrs by RNase/PI staining based flow cytometry analysis; assay type: functional

In the case of `Brc1ccc2c(c1)-c1cc(-c3ccccc3)nc3c1C(N=CN3c1ccccc1)O2` (stereo not drawn), the Activity [1] is reported as “Non-Toxic”, the viability at 10 µM (Hs-578T [2]) is reported as 50.4% and the Activity [3] is reported as “Non-Toxic”. The Activity [4] was “Non-Toxic”, the Activity [5] was “Non-Toxic” and the viability at 30 µM (Hs-578T [6]) was 32.6%. The Activity [7] was ~ 4 ml, the Activity (Hs-578T [8]) was “Active” and the Activity (Hs-578T [9]) was “Active”. The Activity (Hs-578T [10]) was “inactive”, the Activity (Hs-578T [11]) was ~50% and the Activity [12] was 2.94 g/day. For the same compound, the Activity (Hs-578T [13]) was “Active”, the Activity (Hs-578T [14]) was 12.4% and the Activity [15] was “Non-Toxic”. For the same compound, the IC50 (Hs-578T [16]) was 8.63 µM, the Activity [17] was “Non-Toxic” and the Activity (Hs-578T [18]) was ~50%. For the same compound, the Activity [19] was “Non-Toxic”, the Activity [20] was “Non-Toxic” and the Activity [21] was “Non-Toxic”. For the same compound, the Activity (Hs-578T [22]) was “Active”, the Activity (Hs-578T [23]) was “Active” and the Activity (Hs-578T [24]) was “Active”. For the same compound, the Activity (Hs-578T [25]) was 35%, the Activity (Hs-578T [26]) was “Active” and the IC50 at 72 h [27] was 36.8 µM. For the same compound, the Activity [28] was “Non-Toxic”, the Activity [29] was “Non-Toxic” and the Activity [30] was “Non-Toxic”. The Activity [31] was “Non-Toxic”, the Activity [32] was “Non-Toxic” and the Activity [33] was “Non-Toxic”. It also gave an Activity (Hs-578T [34]) of ~8%, a viability at 10 µM (MDA-MB-231) of 49.9% and an Activity (Hs-578T [35]) of 10%. For the same compound, the Activity [36] was “Non-Toxic” and the Activity (Hs-578T [37]) was “inactive”.
